{
  "source": "patent US6852696B2",
  "about": "“Inhibitors of glycosaminoglycans” (The University of Texas System, priority 1999, dated 2005)",
  "key": {"[1]": {"conditions": "systemic, local, or topical administration; co-pending application; cited from earlier work"}, "[2]": {"system": "HAase (from bovine testis)", "assay": "HAase-mediated degradation of immobilized biotinylated HA", "format": "biochemical", "conditions": "500 μg/ml pretreatment", "procedure": "FIGS. 5A-C. Impact of Pep-1 on HA degradation products. (FIG. 5A) 96 well plates were coated with biotinylated-HA (0.1 μg/ml) and pretreated with 500 μg/ml of Pep-1 (open circles), RP (closed circles), or PBS alone (triangles) for 3 hours. These plates were then incubated for 30 min in the presence of HAase (from bovine testis). After extensive wash, the amounts of remaining biotinylated HA on the plates were determined by addition of streptavidin-alkaline phosphatase followed by p-nitrophenyl phosphate substrate. The % HA digestion was calculated from the optical densities. The data shown are the means+/−s.e.m.from triplicate samples analyzed with a hyperbolic model. (FIG. 5B) The impact of Pep-1 on HA digestion and on cell adhesion was examined in parallel using the HA-coated plates prepared simultaneously. Pep-1, RP, or PBS alone was added to the HA-coated plates as above and their effects on HAase-mediated HA degradation and on the adhesion of ^35S-labeled BW5147 thymoma cells were compared. […] Results are expressed as the means+/−s.e.m.from triplicate samples.\nTo test the impact of Pep-1 on HA degradation, the present inventors developed a 96 well-based assay in which biotinylated HA was immobilized onto the plates and treated with HAase. The amounts of HA that remained attached to the wells was then determined by addition of streptavidin-conjugated alkaline phosphatase (FIG. 5A)."}, "HA": {"system": "HA", "conditions": "co-pending application 60/126,475; cited from earlier work"}, "DC-associated HA": {"system": "DC-associated HA", "assay": "Binding of biotinylated peptide to DC surfaces", "conditions": "biotinylated form", "procedure": "FIGS. 8B-D. Synthesis and surface expression of HA by DC. (B) XS106 DC were labeled with ^3H-glucosamine and then examined for the incorporation of hyaluronidase-sensitive radioactivities (means+/−s.e.m.; n=5) into the indicated subcellular fractions. (C) XS106 DC were incubated with biotinylated Pep-1 or RP and then with PE-conjugated streptavidin (filed histograms) (Mummert et al. J. Exp. Med. 192:769-779, 2000) or bovine testis hyaluronidase. Baseline staining levels with PE-streptavidin alone are shown with open histograms. (D) The indicated DC preparations were examined for binding of biotinylated Pep-1 (filled) and RP (open). Peptide binding to splenic DC and bone marrow-DC was examined within the CD11c^+ populations."}},
  "data": [
    {"sequence": "GAHWQFNALTVR [Pep-1]", "values": [
      {"measurement": "inhibition of contact hypersensitivity responses", "setting": "[1]", "value": "inhibited the expression of contact hypersensitivity responses"},
      {"measurement": "effect on HAase-mediated HA degradation", "setting": "[2]", "value": "failed to affect the degradation of HA substrates"},
      {"measurement": "inhibition of leukocyte adhesion to HA substrates", "setting": "HA", "value": "inhibited leukocyte adhesion to HA substrates almost completely"},
      {"measurement": "binding to other DC preparations (XS52 DC, splenic DC, bone marrow-derived DC)", "setting": "DC-associated HA", "value": "bound to all other tested DC preparations"},
      {"measurement": "binding to surfaces of XS106 DC", "setting": "DC-associated HA", "value": "bound to the surfaces of XS106 DC"},
      {"measurement": "binding to DC after hyaluronidase pretreatment", "setting": "DC-associated HA; hyaluronidase pretreatment of DC", "value": "abolished almost completely"}
    ]}
  ]
}
